In US20050289668A1, “Plants with increased levels of one or more amino acids” (priority 2003, published 2005):
Residue numbers refer to the chain shown, from its start. pIC50: −log10 of the molar value.

Tests used:
[1] = target: T1, E. coli threonine deaminase (ilvA) variant L481Y, SEQ ID NO: 5 (Escherichia coli, UniProt P04968, A120R/A140R/G195C/G334V/L481Y/V121L); assay: Threonine deaminase steady state kinetics, L481Y; format: biochemical
T1 construct: made in house; host or cells: E. coli (pSE380, crude extract)
T1 sequence (P04968 1-514 A120R/V121L/A140R/G195C/G334V/L481Y): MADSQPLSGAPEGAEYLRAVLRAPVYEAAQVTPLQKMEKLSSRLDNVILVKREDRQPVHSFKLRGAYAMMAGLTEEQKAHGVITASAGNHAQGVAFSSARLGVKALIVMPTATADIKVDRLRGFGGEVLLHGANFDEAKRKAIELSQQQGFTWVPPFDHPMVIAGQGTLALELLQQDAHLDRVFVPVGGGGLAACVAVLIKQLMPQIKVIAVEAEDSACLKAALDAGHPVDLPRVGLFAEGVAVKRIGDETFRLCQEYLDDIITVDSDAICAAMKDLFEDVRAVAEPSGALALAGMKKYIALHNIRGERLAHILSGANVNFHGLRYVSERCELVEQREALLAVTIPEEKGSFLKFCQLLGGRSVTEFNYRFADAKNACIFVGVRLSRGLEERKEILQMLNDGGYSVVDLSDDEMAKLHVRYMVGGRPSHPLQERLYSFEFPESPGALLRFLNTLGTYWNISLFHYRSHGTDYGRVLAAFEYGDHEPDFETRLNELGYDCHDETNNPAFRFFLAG
Experimental: (§1) Before conducting further transformation experiments using the isolated ilvA alleles in transgenic plants, each allele was over-expressed in E. coli to determine its kinetic parameters. Kinetics data on threonine deaminases containing various mutations, and a comparison to data available for threonine deaminases from Arabidopsis, are provided in Table 4. The E. coli ilvA481 variants were subcloned into pSE380 (Invitrogen, Carlsbad, Calif.) and expression was induced with 0.2 mM IPTG at 37° C. for 3 hours. Expression of the E. coli alleles was high and fairly consistent as visualized by SDS-PAGE.
The effects of amino acid substitutions at Leu481 in ilvA were assessed by steady state kinetic analysis in the presence and absence of L-isoleucine. Threonine deaminase polypeptides for use in in vitro kinetics studies were extracted from E. coli cells in assay buffer containing 50 mM potassium phosphate (pH7.5), 1 mM dithiothreitol (DTT), and 0.5 mM ethylenediamine-tetraacetate. A continuous assay method was employed to monitor the formation of α-ketobutyrate directly at 230 nm (ε230 (pH7.5)=540 M^−1cm^−1 whereas threonine absorption was negligible (˜1%)). The assay was initiated by adding 20 μl of crude extract diluted 1:20 v/v to the assay vessel containing L-threonine (between 2.5 mM and 50 mM) in a final volume of 1 mL. For L-isoleucine inhibition, L-isoleucine was added between 0 mM and 20 mM. The kinetic parameters were determined by fitting the data points to the equations using GraFit 4.0 software (Erithacus Software, Surrey, UK). For comparison, the kcat values of L481 alleles were normalized to the kcat value for the wild type IlvA enzyme. Enzymes represented in FIG. 7 are: wild type E. coli threonine deaminase (circles), L481Y TD enzyme (diamonds), L481F TD enzyme (triangles), and the L481T TD enzyme (squares). Table 4 also summarizes the kinetic parameters of the variant threonine deaminase enzymes produced by the various E. coli ilvA alleles.

[2] = target: T2, E. coli threonine deaminase (ilvA) variant L481F (ilvA466), SEQ ID NO: 4 (Escherichia coli, UniProt P04968, A120R/A140R/G195C/G334V/L481F/V121L); assay: biochemical; format: biochemical
T2 construct: made in house; host or cells: E. coli (pSE380, crude extract)
T2 sequence (P04968 whole entry A120R/V121L/A140R/G195C/G334V/L481F): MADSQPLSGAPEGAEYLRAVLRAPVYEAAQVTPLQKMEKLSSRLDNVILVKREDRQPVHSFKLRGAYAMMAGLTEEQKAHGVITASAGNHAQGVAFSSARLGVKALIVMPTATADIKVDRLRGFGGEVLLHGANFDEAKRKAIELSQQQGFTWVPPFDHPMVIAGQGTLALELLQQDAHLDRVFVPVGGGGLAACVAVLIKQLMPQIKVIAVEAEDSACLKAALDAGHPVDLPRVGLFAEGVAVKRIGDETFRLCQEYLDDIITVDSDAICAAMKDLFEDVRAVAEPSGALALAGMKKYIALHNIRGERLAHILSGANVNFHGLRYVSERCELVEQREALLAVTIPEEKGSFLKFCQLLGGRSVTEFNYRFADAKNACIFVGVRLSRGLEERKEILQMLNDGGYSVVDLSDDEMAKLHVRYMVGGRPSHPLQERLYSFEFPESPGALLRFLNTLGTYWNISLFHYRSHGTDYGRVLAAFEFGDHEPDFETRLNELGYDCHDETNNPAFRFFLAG
Experimental: as §1
(§2) The effects of amino acid substitutions at Leu481 in ilvA were assessed by steady state kinetic analysis in the presence and absence of L-isoleucine. Threonine deaminase polypeptides for use in in vitro kinetics studies were extracted from E. coli cells in assay buffer containing 50 mM potassium phosphate (pH7.5), 1 mM dithiothreitol (DTT), and 0.5 mM ethylenediamine-tetraacetate. A continuous assay method was employed to monitor the formation of α-ketobutyrate directly at 230 nm (ε230 (pH7.5)=540 M^−1cm^−1 whereas threonine absorption was negligible (˜1%)). […] The kinetic parameters were determined by fitting the data points to the equations using GraFit 4.0 software (Erithacus Software, Surrey, UK). […]

[3] = target: T3, E. coli threonine deaminase (ilvA), wild type, SEQ ID NO: 2 (Escherichia coli, UniProt P04968, A120R/A140R/G195C/G334V/V121L); assay: Threonine deaminase steady state kinetics, E. coli wild type; format: biochemical
T3 construct: made in house; host or cells: E. coli (crude extract)
T3 sequence (P04968 whole entry A120R/V121L/A140R/G195C/G334V): as the sequence (P04968 whole entry A120R/V121L/A140R/G195C/G334V/L481F) above, with F481L counted along it
Experimental: as §1, §2

[4] = test system: Arabidopsis threonine deaminase, wild type; conditions: wild type Arabidopsis TD, comparison data, cited from earlier work
[5] = test system: Arabidopsis threonine deaminase, mutant OMR1 (polynucleotide SEQ ID NO: 22); conditions: mutant Arabidopsis (OMR1) TD, comparison data, cited from earlier work
[6] = target: T4, E. coli threonine deaminase (ilvA) variant L447F (ilvA219), SEQ ID NO: 3 (Escherichia coli, UniProt P04968, A120R/A140R/G195C/G334V/L447F/V121L); assay: Threonine deaminase steady state kinetics, L447F (ilvA219); format: biochemical
T4 construct: made in house; host or cells: E. coli (crude extract)
T4 sequence (P04968 1-514 A120R/V121L/A140R/G195C/G334V/L447F): T1 sequence (P04968 1-514 A120R/V121L/A140R/G195C/G334V/L481Y) with L447F, Y481L

Row | Structure (SMILES) | Hill coefficient (n), substrate binding ([1]; L481Y, pMON25868, degree of cooperativity) | Km ([1]; read-out: Km^Thr, L481Y, pMON25868, pH 7.5, L-threonine 2.5-50 mM) [mM] | Km ([2]; read-out: Km^Thr, L481F, pMON25857, pH 7.5, L-threonine 2.5-50 mM) [mM] | Km ([3]; read-out: Km^Thr, E. coli wt, pMON25858, pH 7.5, L-threonine 2.5-50 mM) [mM] | Km ([4]; read-out: Km^Thr) [mM] | Km ([5]; read-out: Km^Thr) [mM] | Hill coefficient (n), substrate binding ([6]; L447F, pMON25859, negative cooperativity) | Km ([6]; read-out: Km^Thr, L447F, pMON25859, pH 7.5, L-threonine 2.5-50 mM) [mM] | pIC50 [1] | pIC50 [2] | pIC50 [3] | pIC50 [4] | pIC50 [5] | pIC50 [6]
1 | C[C@@H](O)[C@H](N)C(=O)O [L-threonine] | 1.1 | 2 | 4 | 8.3 | 2.8 | 3.6 | 0.5 | 1.7 | – | – | – | – | – | –
2 | CC[C@H](C)[C@H](N)C(=O)O [L-isoleucine] | – | – | – | – | – | – | – | – | 2.80 | 3.10 | 4.25 | 5.00 | 3.30 | < 1.70
